The values below come from patent publication US12281057B2 (VERTEX PHARMACEUTICALS INCORPORATED, priority 2017, dated 2025).

truncated form of human NaV 1.8 with full channel activity, sequence (Q9Y5Y9 126-1722 limits assumed): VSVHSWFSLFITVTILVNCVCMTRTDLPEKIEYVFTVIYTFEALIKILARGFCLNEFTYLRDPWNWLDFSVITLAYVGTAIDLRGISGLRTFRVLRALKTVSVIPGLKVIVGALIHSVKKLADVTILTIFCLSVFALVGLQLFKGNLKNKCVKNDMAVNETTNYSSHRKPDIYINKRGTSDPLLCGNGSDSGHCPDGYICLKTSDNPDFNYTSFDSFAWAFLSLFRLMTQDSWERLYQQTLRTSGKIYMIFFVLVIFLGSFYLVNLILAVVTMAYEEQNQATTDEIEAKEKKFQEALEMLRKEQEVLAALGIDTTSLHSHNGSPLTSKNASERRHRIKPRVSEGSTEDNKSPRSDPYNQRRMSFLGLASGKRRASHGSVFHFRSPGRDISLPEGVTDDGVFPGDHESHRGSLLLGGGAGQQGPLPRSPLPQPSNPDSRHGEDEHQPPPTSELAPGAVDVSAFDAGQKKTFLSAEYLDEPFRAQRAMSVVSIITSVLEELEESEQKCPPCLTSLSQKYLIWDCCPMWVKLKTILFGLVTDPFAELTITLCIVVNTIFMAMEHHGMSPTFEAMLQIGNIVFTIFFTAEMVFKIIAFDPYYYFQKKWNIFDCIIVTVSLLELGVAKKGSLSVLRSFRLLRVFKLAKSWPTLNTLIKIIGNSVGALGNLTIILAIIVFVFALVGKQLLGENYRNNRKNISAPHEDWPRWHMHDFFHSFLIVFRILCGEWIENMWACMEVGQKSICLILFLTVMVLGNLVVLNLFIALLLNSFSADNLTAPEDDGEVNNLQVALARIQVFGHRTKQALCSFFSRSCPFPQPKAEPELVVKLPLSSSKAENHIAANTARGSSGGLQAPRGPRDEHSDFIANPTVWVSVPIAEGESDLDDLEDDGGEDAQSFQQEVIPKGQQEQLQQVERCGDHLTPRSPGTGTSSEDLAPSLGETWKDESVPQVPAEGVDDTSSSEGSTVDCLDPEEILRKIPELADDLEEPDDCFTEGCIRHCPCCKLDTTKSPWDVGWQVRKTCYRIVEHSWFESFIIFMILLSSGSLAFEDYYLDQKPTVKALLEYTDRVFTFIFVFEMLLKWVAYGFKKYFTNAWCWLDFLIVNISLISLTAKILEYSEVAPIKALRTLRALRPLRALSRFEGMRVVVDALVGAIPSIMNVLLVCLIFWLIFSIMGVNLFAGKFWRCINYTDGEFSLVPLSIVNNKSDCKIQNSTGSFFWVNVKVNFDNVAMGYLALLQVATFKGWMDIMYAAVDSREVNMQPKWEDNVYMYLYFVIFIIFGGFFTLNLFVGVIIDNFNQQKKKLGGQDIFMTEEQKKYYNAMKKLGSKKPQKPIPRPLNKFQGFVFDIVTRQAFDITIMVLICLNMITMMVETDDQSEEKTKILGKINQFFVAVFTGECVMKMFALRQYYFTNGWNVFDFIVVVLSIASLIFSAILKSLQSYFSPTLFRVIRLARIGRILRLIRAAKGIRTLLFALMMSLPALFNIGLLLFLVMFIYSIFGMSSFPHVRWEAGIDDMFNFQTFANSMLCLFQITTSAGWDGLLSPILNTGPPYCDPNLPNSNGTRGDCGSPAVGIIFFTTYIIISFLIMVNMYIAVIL

For one experiment, the target named is truncated form of human NaV 1.8 with full channel activity (Homo sapiens, UniProt Q9Y5Y9). Nature of the experiment: E-VIPR Assay Method A for detecting and measuring Nav inhibition (HEK cells, membrane potential FRET dyes, electrical stimulation). Conditions: HEK cells expressing human NaV 1.8, HS (human serum) in compound loading buffer, 11 point dose response, top dose 3 μM, Table 20, read-out: Nav 1.8 MedChem Optical Assay EVIPR Assay Method A HS IC50. Type of experiment: cell-based. An excerpt:
E-VIPR Assay Method A for Detecting and Measuring Nav Inhibition Properties Sodium ion channels are voltage-dependent proteins that can be activated by inducing membrane voltage changes by applying electric fields. The electrical stimulation instrument and methods of use, referred to as E-VIPR, are described in International Publication No. WO 2002/008748 A3 and C.-J. Huang et al. Characterization of voltage-gated sodium channel blockers by electrical stimulation and fluorescence detection of membrane potential, 24 Nature Biotech. 439-46 (2006), both of which are incorporated by reference in their entirety. The instrument comprises a microtiter plate handler, an optical system for exciting the coumarin dye while simultaneously recording the coumarin and oxonol emissions, a waveform generator, a current- or voltage-controlled amplifier, and parallel electrode pairs that are inserted into assay plate wells. Under integrated computer control, this instrument passes user-programmed electrical stimulus protocols to cells within the wells of the microtiter plate. […] Sigma #F4135), 1% NEAA (Non-Essential Amino Acids, Life Tech #11140), 1% HEPES (Life Tech #15630), 1% Pen-Strep (Penicillin-Streptomycin; […] Cells were expanded in vented cap flasks, with 95% humidity and 5% CO2. Reagents and Stock Solutions: • 100 mg/mL Pluronic F-127 (Sigma #P2443), in dry DMSO • Compound Plates: […] 5% KIR 2.1 Bacmam virus (produced in-house), prepared as described in Section 3.3 of J. A. […] The solution was made by adding 10% Pluronic F127 stock equal to combined volumes of CC2-DMPE and DiSBAC6(3). The order of preparation was first mix Pluronic and CC2-DMPE, then add DiSBAC6(3), then while vortexing add Bath1/β-Cyclodextrin. […] Assay Protocol: […] Final DMSO concentration for all wells in the assay was 0.625% (0.75% DMSO was supplemented to the Compound Loading Buffer for a final DMSO concentration of 0.625%). […] 3) Cell plates were prepared. On the day of the assay, the media was aspirated, and the cells were washed three times with 80 μL of Bath-1 buffer, maintaining 25 μL residual volume in each well. 4) 25 μL per well of Hexyl Dye Solution was dispensed into the cell plates. The cells were incubated for 20 minutes at room temp or ambient conditions in darkness. 5) 80 μL per well of Compound Loading Buffer was dispensed into compound plates. 6) The cell plates were washed three times with 80 μL per well of Bath-1 Buffer, leaving 25 µL of residual volume. Then 25 uL per well from compound plate was transferred to each cell plate. The mixture was incubated for 30 minutes at room temp/ambient conditions. 7) The plate was read on E-VIPR using the current-controlled amplifier to deliver stimulation wave pulses using the following protocol: 1.25 Amps, 2.5 ms pulse width biphasic waveform, 10 Hz for 10 seconds at a scan rate of 200 Hz. A pre-stimulus recording was performed for 0.5 seconds to obtain the un-stimulated intensities baseline. The stimulatory waveform was followed by 0.5 seconds of post-stimulation recording to examine the relaxation to the resting state. Data Analysis: Data were analyzed and reported as normalized ratios of emission intensities measured in the 460 nm and 580 nm channels. The response as a function of time was reported as the ratios obtained using the following formula: […] The data were further reduced by calculating the initial (Ri) and final (Rf) ratios. These were the average ratio values during part or all of the pre-stimulation period and during sample points during the stimulation period. The fluorescence ratio (Rf/Ri) was then calculated and reported as a function of time. Control responses were obtained by performing assays in the presence of the positive control, and in the absence of pharmacological agents (DMSO vehicle negative control). Responses to the negative (N) and positive (P) controls were calculated as above. The compound antagonist % activity A was then defined as: [formula] where X is the ratio response of the test compound. […]
A word on the IC50: it is the point on the concentration scale where inhibition reaches its midpoint. As for `NC(=O)c1cc(NC(=O)c2c(Oc3ccc(OC(F)(F)F)c(Cl)c3)ccc(C(F)(F)F)c2F)ccc1F` [Compound 14, N-(3-carbamoyl-4-fluoro-phenyl)-6-[3-chloro-4-(trifluoromethoxy)phenoxy]-2-fluoro-3-(trifluoromethyl)benzamide], the IC50 stood at 6 nM.

Staying with this experiment, now noted: HEK cells expressing human NaV 1.8, HS (human serum) in compound loading buffer, 11 point dose response, top dose 3 μM, Table 20A, read-out: Nav 1.8 MedChem Optical Assay EVIPR Assay Method A HS IC50.
Take `[2H]C([2H])([2H])Oc1cc(OC(F)(F)F)ccc1Oc1ccc(C(F)(F)F)c(F)c1C(=O)Nc1ccc(C(=O)NC)nc1` [Compound 209, 5-[[2-fluoro-6-[2-(trideuteriomethoxy)-4-(trifluoromethoxy)phenoxy]-3-(trifluoromethyl)benzoyl]amino]-N-methyl-pyridine-2-carboxamide]: the IC50 was determined as 50 nM. On to `NC(=O)c1cc(NC(=O)c2cc(F)c(C(F)(F)F)cc2Oc2ccc(OC(F)(F)F)cc2)ccc1F` [Compound 77, N-(3-Carbamoyl-4-fluoro-phenyl)-5-fluoro-2-[4-(trifluoromethoxy)phenoxy]-4-(trifluoromethyl)benzamide], for which the concentration for half-maximal inhibition (IC50) is 150 nM. `COc1cc(F)ccc1Oc1cc(C(F)(F)F)cc(C(F)(F)F)c1C(=O)Nc1ccc(C(N)=O)nc1` [Compound 159, 5-[[2-(4-Fluoro-2-methoxy-phenoxy)-4,6-bis(trifluoromethyl)benzoyl]amino]pyridine-2-carboxamide]: the half-maximal inhibitory concentration (IC50) amounted to 1700 nM. As to `COc1cc(OC(F)(F)F)ccc1Oc1ccc(C(F)(F)F)c(F)c1C(=O)Nc1ccnc(C(=O)N(C)C)c1` [Compound 97, 4-[[2-fluoro-6-[2-methoxy-4-(trifluoromethoxy)phenoxy]-3-(trifluoromethyl)benzoyl]amino]-N,N-dimethyl-pyridine-2-carboxamide], the IC50 came to 20 nM. Regarding `[2H]C([2H])([2H])Oc1c(Oc2ccc(C(F)(F)F)c(F)c2C(=O)Nc2ccnc(C(=O)NC)c2)ccc(OC(F)(F)F)c1F` [Compound 228, 4-[[2-Fluoro-6-[3-fluoro-2-(trideuteriomethoxy)-4-(trifluoromethoxy)phenoxy]-3-(trifluoromethyl)benzoyl]amino]-N-methyl-pyridine-2-carboxamide], the IC50 was found to be 7 nM. Take `COc1cc(OC(F)(F)F)ccc1Oc1cc(C(F)(F)F)cc(F)c1C(=O)Nc1ccnc(C(N)=O)c1` [Compound 163, 4-[[2-Fluoro-6-[2-methoxy-4-(trifluoromethoxy)phenoxy]-4-(trifluoromethyl)benzoyl]amino]pyridine-2-carboxamide]: the IC50 is 11 nM. On to `COc1cc(OC(F)(F)F)ccc1Oc1ccc(C(F)(F)F)c(F)c1C(=O)Nc1cc(C(N)=O)c(F)cc1C` [Compound 118], for which the IC50 was determined as 100 nM.

As for `COc1cc(OC(F)(F)F)ccc1Oc1cc(C(F)(F)F)ncc1C(=O)Nc1ccc(OC)c(C(N)=O)c1` [Compound 239, N-(3-carbamoyl-4-methoxy-phenyl)-4-[2-methoxy-4-(trifluoromethoxy)phenoxy]-6-(trifluoromethyl)pyridine-3-carboxamide], the half-inhibitory concentration (IC50) stood at 2700 nM. For `[2H]C([2H])([2H])Oc1cc(OC(F)(F)F)ccc1Oc1cc(C(F)(F)F)cc(F)c1C(=O)Nc1ccc(C(N)=O)nc1` [Compound 154], the half-inhibitory concentration (IC50) came out at 55 nM. On the same count and under the same terms, the result for `CCOc1c(C(F)(F)F)ncc(Oc2ccc(OC(F)(F)F)cc2OC)c1C(=O)Nc1cc(C(N)=O)ncc1C` [Compound 210, N-(2-Carbamoyl-5-methyl-4-pyridyl)-3-ethoxy-5-[2-methoxy-4-(trifluoromethoxy)phenoxy]-2-(trifluoromethyl)pyridine-4-carboxamide] reads 140 nM. The same measure, in the same setting: with `COc1cc(OC(F)(F)F)ccc1Oc1cc(C(F)(F)F)cnc1C(=O)Nc1cccc(C(N)=O)c1` [Compound 31, N-(3-Carbamoylphenyl)-3-[2-methoxy-4-(trifluoromethoxy)phenoxy]-5-(trifluoromethyl)pyridine-2-carboxamide] the figure was 155 nM.

As to `[2H]C([2H])([2H])Oc1cc(OC(F)(F)F)ccc1Oc1ccc(C(F)(F)F)c(OC)c1C(=O)Nc1cc(C(N)=O)ncc1C` [Compound 146, 4-[[2-Methoxy-6-[2-(trideuteriomethoxy)-4-(trifluoromethoxy)phenoxy]-3-(trifluoromethyl)benzoyl]amino]-5-methyl-pyridine-2-carboxamide], the IC50 was determined as 39 nM. On to `COc1cc(OC(F)(F)F)ccc1Oc1cc(C(F)(F)F)ncc1C(=O)Nc1ccnc(C(N)=O)c1` [Compound 34, N-(2-Carbamoyl-4-pyridyl)-4-[2-methoxy-4-(trifluoromethoxy)phenoxy]-6-(trifluoromethyl)pyridine-3-carboxamide], for which the IC50 worked out at 83 nM.

Regarding `COc1cc(OC(F)(F)F)ccc1Oc1cc(Cl)cc(OC)c1C(=O)Nc1cc(C(N)=O)ncc1C` [Compound 133, 4-[[4-Chloro-2-methoxy-6-[2-methoxy-4-(trifluoromethoxy)phenoxy]benzoyl]amino]-5-methyl-pyridine-2-carboxamide], the half-inhibitory concentration (IC50) was 430 nM.

Take `COc1cc(OC(F)(F)F)ccc1Oc1ccc(C(F)(F)F)c(F)c1C(=O)Nc1cc(C(N)=O)ccn1` [Compound 87, 2-[[2-fluoro-6-[2-methoxy-4-(trifluoromethoxy)phenoxy]-3-(trifluoromethyl)benzoyl]amino]pyridine-4-carboxamide]: the concentration for half-maximal inhibition (IC50) amounted to 150 nM. Take `[2H]C([2H])([2H])Oc1cc(OC(F)(F)F)ccc1Oc1cc(Cl)cc(Cl)c1C(=O)Nc1ccnc(C(N)=O)c1` [Compound 179, 4-[[2,4-Dichloro-6-[2-(trideuteriomethoxy)-4-(trifluoromethoxy)phenoxy]benzoyl]amino]pyridine-2-carboxamide]: the IC50 amounted to 10 nM.

Take `NC(=O)c1cc(NC(=O)c2cnc(C3CC3)cc2Oc2ccc(OC(F)(F)F)c(F)c2)ccc1F` [Compound 42, N-(3-Carbamoyl-4-fluoro-phenyl)-6-cyclopropyl-4-[3-fluoro-4-(trifluoromethoxy)phenoxy]pyridine-3-carboxamide]: the IC50 was 400 nM.

For the compound `COc1cc(OC(F)(F)F)ccc1Oc1cc(C2CC2(F)F)ncc1C(=O)Nc1ccc(F)c(C(N)=O)c1` (centres unmarked) [Compound 108, N-(3-Carbamoyl-4-fluoro-phenyl)-6-(2,2-difluorocyclopropyl)-4-[2-methoxy-4-(trifluoromethoxy)phenoxy]pyridine-3-carboxamide], the IC50 stood at 50 nM. Consider `COc1cc(OC(F)(F)F)ccc1Oc1cc(C(F)(F)F)ccc1C(=O)Nc1ccc(F)c(C(N)=O)c1` [Compound 27, N-(3-Carbamoyl-4-fluoro-phenyl)-2-[2-methoxy-4-(trifluoromethoxy)phenoxy]-4-(trifluoromethyl)benzamide], for which the IC50 came to 87 nM.

In the case of `NC(=O)c1cc(NC(=O)c2c(Oc3ccc(OC(F)(F)F)c(O)c3)ccc(C(F)(F)F)c2F)ccc1F` [Compound 141, N-(3-Carbamoyl-4-fluoro-phenyl)-2-fluoro-6-[3-hydroxy-4-(trifluoromethoxy)phenoxy]-3-(trifluoromethyl)benzamide], the 50% inhibitory concentration (IC50) is 103 nM. Turning to `COc1cc(OC(F)(F)F)ccc1Oc1ccc(C(F)(F)F)c(F)c1C(=O)Nc1cc(C(N)=O)ncc1C` [Compound 120, 4-[[2-Fluoro-6-[2-methoxy-4-(trifluoromethoxy)phenoxy]-3-(trifluoromethyl)benzoyl]amino]-5-methyl-pyridine-2-carboxamide], the IC50 amounted to 5 nM. The same measure, in the same setting: with `NC(=O)c1cc(NC(=O)c2c(Oc3ccc(OC(F)(F)F)cc3Cl)ccc(C(F)(F)F)c2F)ccn1` [Compound 51] the figure was 9 nM.
